# Tests used:
# [1] = system: Unkräuter, wie z. B. Datura, Galium, Polygonum, Portulak, Sinapis und Solanum; assay: Post-emergence test (herbicidal action on weeds); type: in vivo; conditions: post-emergence spray on test plants 5 - 15 cm high, 2000 l Wasser/ha, rated after three weeks as % Schädigung vs untreated control; result stated in comparison with Vergleichssubstanz (A)
# Text: (§1) Lösungsmittel: 5 Gewichtsteile Aceton Emulgator: 1 Gewichtsteil Alkylarylpolyglykolether
# (§2) Zur Herstellung einer zweckmäßigen Wirkstoffzubereitung vermischt man 1 Gewichtsteil Wirkstoff mit der angegebenen Menge Lösungsmittel, gibt die angegebene Menge Emulgator zu und verdünnt das Konzentrat mit Wasser auf die gewünschte Konzentration. Mit der Wirkstoffzubereitung spritzt man Testpflanzen, welche eine Höhe von 5 - 15 cm haben so, daß die jeweils gewünschten Wirkstoffmengen pro Flächeneinheit ausgebracht werden. Die Konzentration der Spritzbrühe wird so gewählt, daß in 2000 l Wasser/ha die jeweils gewünschten Wirkstoffmengen ausgebracht werden. Nach drei Wochen wird der Schädigungsgrad der Pflanzen bonitiert in % Schädigung im Vergleich zur Entwicklung der unbehandelten Kontrolle.
# Weizen = assay: Post-emergence test (crop selectivity); type: in vivo; conditions: post-emergence spray, 2000 l Wasser/ha, rated after three weeks
# Text: as §1, §2
SMILES,Wirkung gegen Unkräuter [1],Selektivität in Weizen (Weizen)
"CCOC(=O)C(C)(O)Cc1cc(Oc2c(Cl)cc(C(F)(F)F)cc2Cl)ccc1Cl (stereo not shown) [Beispiel 6, 1-Hydroxy-1-methyl-2-(2-chlor-5-(2,6-dichlor-4-trifluormethyl-phenoxy)-phenyl)-propionsäure-ethylester]",erheblich stärkere Wirkung,guter Selektivität
"FC(F)(F)c1ccc(Oc2ccc(Cl)c(CBr)c2)c(Cl)c1 [Beispiel 1, 2-Chlor-5-(2-Chlor-4-trifluormethyl-phenoxy)-benzylbromid]",erheblich stärkere Wirkung,guter Selektivität

# Reference: patent EP0338306A2, “Halogen-substituted phenoxybenzyl compounds” (BAYER AG, priority 1988, dated 1989)
